In patent US5739385A, “Process for preparing optically active carboxylic acids” (Union Carbide Chemicals & Plastics Technology Corporation, priority 1995, dated 1998):

Legend:
[1] = background, in words; cited from earlier work
[2] = Naproxen aldehyde solubility in acetone (visual cloud point / clear point); format: physicochemical
Excerpt: Solubility data for solids in acetone solvent were obtained by visually obtaining a "cloud" point for a solution of known composition by slowly cooling the solution. After obtaining a "cloud" point the solution was slowly heated until a "dear" point was observed. The "clear" point represents the saturation temperature of the solution and the "cloud" point the temperature at which massive spontaneous nucleation occurs.
Naproxen aldehydes [i.e., R- and S-2-(6-methoxy-2-naphthyl)propionaldehyde]are very soluble in acetone.

| Compound | anti-arthritic activity [1] | solubility in acetone ([2]; in words) | temperature dependence of solubility ([2]; in words) | Cloud Point ([2]; solids 22.0 wt %, solids/liquid ratio 0.28, massive spontaneous nucleation temperature) | Clear Point ([2]; solids 22.0 wt %, solids/liquid ratio 0.28, saturation temperature) | Cloud Point ([2]; solids 29.0 wt %, solids/liquid ratio 0.41, massive spontaneous nucleation temperature) | Clear Point ([2]; solids 29.0 wt %, solids/liquid ratio 0.41, saturation temperature) | Cloud Point ([2]; solids 30.0 wt %, solids/liquid ratio 0.43, massive spontaneous nucleation temperature) | Clear Point ([2]; solids 30.0 wt %, solids/liquid ratio 0.43, saturation temperature) | Cloud Point ([2]; solids 35.3 wt %, solids/liquid ratio 0.55, massive spontaneous nucleation temperature) | Clear Point ([2]; solids 35.3 wt %, solids/liquid ratio 0.55, saturation temperature) | Cloud Point ([2]; solids 47.0 wt %, solids/liquid ratio 0.89, massive spontaneous nucleation temperature) | Clear Point ([2]; solids 47.0 wt %, solids/liquid ratio 0.89, saturation temperature) |
| --- | --- | --- | --- | --- | --- | --- | --- | --- | --- | --- | --- | --- | --- |
| COc1ccc2cc([C@H](C)C(=O)O)ccc2c1 [S enantiomer, S-2-(6-methoxy-2-naphthyl)propionic acid] | potent anti-arthritic agent |  |  |  |  |  |  |  |  |  |  |  |  |
| COc1ccc2cc(C(C)C=O)ccc2c1 (racemic) [Naproxen Aldehyde, R- and S-2-(6-methoxy-2-naphthyl)propionaldehyde] |  | very soluble | very sensitive to temperature | -15 °C | 1 °C | -17 °C | 6 °C | -6 °C | 11 °C | -9 °C | 15 °C | 5 °C | 25 °C |
